# Source: article PMC6150246, “Design, Synthesis and Preliminary Biological Evaluation of Novel Benzyl Sulfoxide 2-Indolinone Derivatives as Anticancer Agents” (Molecules : A Journal of Synthetic Chemistry and Natural …, 2017)
# Target: tyrosine kinase
# Experiment: Tyrosine kinase inhibitory activity assay (self-made ELISA kit)
# Format: biochemical
# Conditions: tyrosine kinase tissue extract, 37 °C 30 min
# Procedure: The 16 designed compounds were first evaluated for tyrosine kinase inhibitory activity using ELISA assay. Indo 5 was used as a reference compound. The kit was self-made and is a very effective and economical method for preliminary tyrosine kinase inhibitory activity evaluation.
# The tyrosine kinase inhibitory activity assay was performed as described in the literature. Details of the experimental procedures are presented in Supplementary Materials associated with this article. The IC50 was calculated using GraphPad Prism Software (GraphPad Prism 5, La Jolla, CA, USA). For each concentration, at least three wells were performed to calculate the average parameter.
# 100μL to each well. The plate was covered with its lid, and incubated at 4℃ overnight (10-12 hours). Then it was washed with 200μL elution buffer once, and dried at 37℃ for 2 h. After that, it was washed with 10mM PBS once, dried at room temperature, and then stored at 4℃ […]
# 2.1.5. Groups: Blank control: 60μL 1×tyrosine kinase buffer + 50μL 1×tyrosine kinase buffer containing ATP; Negative control: 10μL 1×tyrosine kinase buffer + 50μL 1×tyrosine kinase buffer containing tissue extract + 50μL 1×tyrosine kinase buffer containing ATP; Positive control: 10μL 1×tyrosine kinase buffer containing L029 + 50μL 1×tyrosine kinase buffer containing tissue extract + 50μL 1×tyrosine kinase buffer containing ATP; Vehicle control: 10μL 1×tyrosine kinase buffer containing DMSO + 50μL 1×tyrosine kinase buffer containing tissue extract + 50μL 1×tyrosine kinase buffer containing ATP; Compounds to be screened: 10μL 1×tyrosine kinase buffer containing compounds to be tested + 50μL 1× tyrosine kinase buffer containing tissue extract + 50μL 1×tyrosine kinase buffer containing ATP. (First, L029 and the compounds were allowed to interact with the tyrosine kinase tissue extract at room temperature for 10 min in advance, and did the same to the Blank control and the Vehicle control, then 50μL 1×tyrosine kinase buffer containing ATP was added to […]
# 2.1.6. Tyrosine kinase inhibitory activity assay: 1×tyrosine kinase buffer was prepared by evenly mixing 1 mL 10× tyrosine kinase buffer with 9 mL DDW. The tissue extract was diluted with 1×tyrosine kinase buffer appropriately, mixed with it gently and evenly, and placed on ice. ATP stock solution was mixed with 1×tyrosine kinase buffer at the final concentration of 3mM , and placed on ice. The microplate was added in respective wells with the groups formulated as above, covered with the lid, and incubated at 37℃ for 30 min. The microplate was washed with 200μL elution buffer and tapped until the residual buffer was removed, and this procedure was repeated for five times. To each well, 100μL antibody diluent (antibody elution buffer diluted at a ratio of 1:2000) was added. The microplate was covered with the lid, and incubated at room temperature for 30 min. OPD solution was prepared by addition of 4 mg OPD into a mixture of 4.86 mL 0.1 mol/L citric acid solution and 5.14 mL 0.2 mol/L Na2HPO4 solution, followed by addition of 50μL 30% H202 to allow for complete dissolution, and then was protected from light. The antibody solution was […]
# removed. The microplate was washed with 200μL elution buffer and tapped until the residual buffer was removed, and this procedure was repeated for five times. 100μL freshly prepared OPD was added, and reacted at room temperature light tight for precisely 7 min. Negative […]
# 100μL 2.5 N H2SO4 was added to terminate the reaction. OD
# 2.1.7. Sample screening: Samples were screened preliminarily by using triplicate assay. The effect of the samples on tyrosine kinase inhibitory activity was tested, and the inhibition rate was calculated. Inhibition rate (%)=(ODnegative control – ODsample) / (ODnegative control* – ODblank) × 100%; *While calculating inhibition rate of positive drugs, ODnegative control in the equation was replaced with ODvehicle control to exclude the influence of DMSO on tyrosine kinase activity. […]
# 2. S. Praveen Kumar, Jiri Gut, Rita C. […]
row,IC50,Compound
1,5.96 ± 0.14 µM,"O=C1Nc2ccccc2/C1=C/[S+]([O-])Cc1cccc(Cl)c1 (stereo not shown) [Compound 6f, (Z)-3-(((3-Chlorobenzyl)sulfinyl)methylene)indolin-2-one]"
2,3.3 ± 0.03 µM,"O=C1Nc2ccccc2/C1=C/[S+]([O-])Cc1ccc(Cl)cc1 (stereo not shown) [Compound 6g, (Z)-3-(((4-Chlorobenzyl)sulfinyl)methylene)indolin-2-one]"
3,3.52 ± 0.15 µM,"O=C1Nc2ccccc2/C1=C/[S+]([O-])Cc1ccccc1Br (stereo not shown) [Compound 6h, (Z)-3-(((2-Bromobenzyl)sulfinyl)methylene)indolin-2-one]"
4,3.32 ± 0.19 µM,"O=C1Nc2ccccc2/C1=C/[S+]([O-])Cc1cccc(Br)c1 (stereo not shown) [Compound 6i, (Z)-3-(((3-Bromobenzyl)sulfinyl)methylene)indolin-2-one]"

# Test system: human cervical carcinoma cell line HeLa
# Experiment: MTS cytotoxicity assay, HeLa
# Format: cell-based
# Conditions: Homo sapiens, HeLa, 48 h treatment
# Text: (§1) To investigate the relationship between anticancer activity and tyrosine kinase inhibitory activity, these compounds were further evaluated for in vitro cytotoxicity against five cancer cell lines (human cervical carcinoma cell line HeLa, human breast carcinoma cell line MCF-7, human liver carcinoma cell line HepG2, human tongue carcinoma cell line SCC-15, and human lung carcinoma A549) using MTS assay. Indo 5 was also used as a reference compound.
# (§2) The five types of human cancer cell lines (HeLa, HepG2, MCF-7, SCC-15, and A549) were cultured aseptically using Dulbecco’s modified Eagle’s medium (DMEM) supplemented with 10% (v/v) fetal bovine serum (FBS) and penicillin (100 units mL^−1)/streptomycin ([…]), at pH 7.2 and 5% CO2 humidified atmosphere at 37 °C. After attaining 80% confluence, the cells were trypsinized with 0.25 trypsin–EDTA and diluted with media to a fixed number of cells.
# (§3) Cytotoxic activity was assessed using the standard MTS method by using triplicate assay. The cells were seeded into 96-well plates containing the medium at the density of 4000–6000 cells/mL (100 μL/well). The compounds were dissolved in DMSO to the concentration of 100 mM and diluted in a culture medium to the concentrations needed. After 24 h, the cultured cells were treated with concentrations of synthesized compounds (3.125 μM to 100 μM for tumor cells) for 48 h. After 48 h of incubation, the supernatant was replaced by fresh medium (100 μL/well) and 10 μL MTS reagent ([3-(4,5-dimethylthiazol-2-yl)-5-(3-carboxymethoxyphenyl)-2-(4-sulfophenyl)-2H-tetrazolium, inner salt]) was added to each well. The plate was further incubated for 3 h at 37 °C in 5% CO2. The optical absorbance in individual wells was determined at 492 nm using a microplate reader. The inhibition rates were calculated by the following formula: Inhibition rate (%) = (ODnegative control − ODsample)/(ODnegative control − ODblank) × 100%
# (§4) IC50 was calculated using GraphPad Prism Software (GraphPad Prism 5, La Jolla, CA, USA). For each concentration, at least three wells were performed to calculate the average parameter.
row,Compound,IC50
1,"O=C1Nc2ccccc2/C1=C/[S+]([O-])Cc1cccc(Cl)c1 (stereo not shown) [Compound 6f, (Z)-3-(((3-Chlorobenzyl)sulfinyl)methylene)indolin-2-one]",60.3 ± 1.98 µM
2,"O=C1Nc2ccccc2/C1=C/[S+]([O-])Cc1ccc(Cl)cc1 (stereo not shown) [Compound 6g, (Z)-3-(((4-Chlorobenzyl)sulfinyl)methylene)indolin-2-one]",40.9 ± 0.88 µM
3,"O=C1Nc2ccccc2/C1=C/[S+]([O-])Cc1ccccc1Br (stereo not shown) [Compound 6h, (Z)-3-(((2-Bromobenzyl)sulfinyl)methylene)indolin-2-one]",79.9 ± 1.57 µM
4,"O=C1Nc2ccccc2/C1=C/[S+]([O-])Cc1cccc(Br)c1 (stereo not shown) [Compound 6i, (Z)-3-(((3-Bromobenzyl)sulfinyl)methylene)indolin-2-one]",48.42 ± 0.14 µM

# Test system: human breast carcinoma cell line MCF-7
# Experiment: MTS cytotoxicity assay, MCF-7
# Format: cell-based
# Conditions: Homo sapiens, MCF7, 48 h treatment
# Text: as §1, §2, §3, §4
row,Compound,IC50
1,"O=C1Nc2ccccc2/C1=C/[S+]([O-])Cc1cccc(Cl)c1 (stereo not shown) [Compound 6f, (Z)-3-(((3-Chlorobenzyl)sulfinyl)methylene)indolin-2-one]",93 ± 1.5 µM
2,"O=C1Nc2ccccc2/C1=C/[S+]([O-])Cc1ccc(Cl)cc1 (stereo not shown) [Compound 6g, (Z)-3-(((4-Chlorobenzyl)sulfinyl)methylene)indolin-2-one]",92.6 ± 0.97 µM
3,"O=C1Nc2ccccc2/C1=C/[S+]([O-])Cc1ccccc1Br (stereo not shown) [Compound 6h, (Z)-3-(((2-Bromobenzyl)sulfinyl)methylene)indolin-2-one]",> 100 µM
4,"O=C1Nc2ccccc2/C1=C/[S+]([O-])Cc1cccc(Br)c1 (stereo not shown) [Compound 6i, (Z)-3-(((3-Bromobenzyl)sulfinyl)methylene)indolin-2-one]",75.1 ± 1.93 µM

# Test system: human liver carcinoma cell line HepG2
# Experiment: MTS cytotoxicity assay, HepG2
# Format: cell-based
# Conditions: Homo sapiens, HepG2, 48 h treatment
# Text: as §1, §2, §3, §4
row,Compound,IC50
1,"O=C1Nc2ccccc2/C1=C/[S+]([O-])Cc1cccc(Cl)c1 (stereo not shown) [Compound 6f, (Z)-3-(((3-Chlorobenzyl)sulfinyl)methylene)indolin-2-one]",86.5 ± 1.15 µM
2,"O=C1Nc2ccccc2/C1=C/[S+]([O-])Cc1ccc(Cl)cc1 (stereo not shown) [Compound 6g, (Z)-3-(((4-Chlorobenzyl)sulfinyl)methylene)indolin-2-one]",75.35 ± 0.72 µM
3,"O=C1Nc2ccccc2/C1=C/[S+]([O-])Cc1ccccc1Br (stereo not shown) [Compound 6h, (Z)-3-(((2-Bromobenzyl)sulfinyl)methylene)indolin-2-one]",98.3 ± 2.04 µM
4,"O=C1Nc2ccccc2/C1=C/[S+]([O-])Cc1cccc(Br)c1 (stereo not shown) [Compound 6i, (Z)-3-(((3-Bromobenzyl)sulfinyl)methylene)indolin-2-one]",71.8 ± 2.18 µM

# Test system: human tongue carcinoma cell line SCC-15
# Experiment: MTS cytotoxicity assay, SCC-15
# Format: cell-based
# Conditions: Homo sapiens, SCC-15, 48 h treatment
# Text: as §1, §2, §3, §4
row,Compound,IC50
1,"O=C1Nc2ccccc2/C1=C/[S+]([O-])Cc1cccc(Cl)c1 (stereo not shown) [Compound 6f, (Z)-3-(((3-Chlorobenzyl)sulfinyl)methylene)indolin-2-one]",96.8 ± 3.76 µM
2,"O=C1Nc2ccccc2/C1=C/[S+]([O-])Cc1ccc(Cl)cc1 (stereo not shown) [Compound 6g, (Z)-3-(((4-Chlorobenzyl)sulfinyl)methylene)indolin-2-one]",> 100 µM
3,"O=C1Nc2ccccc2/C1=C/[S+]([O-])Cc1ccccc1Br (stereo not shown) [Compound 6h, (Z)-3-(((2-Bromobenzyl)sulfinyl)methylene)indolin-2-one]",> 100 µM
4,"O=C1Nc2ccccc2/C1=C/[S+]([O-])Cc1cccc(Br)c1 (stereo not shown) [Compound 6i, (Z)-3-(((3-Bromobenzyl)sulfinyl)methylene)indolin-2-one]",82.1 ± 3.34 µM

# Test system: human lung carcinoma A549
# Experiment: MTS cytotoxicity assay, A549
# Format: cell-based
# Conditions: Homo sapiens, A549, 48 h treatment
# Text: as §1, §2, §3, §4
row,Compound,IC50
1,"O=C1Nc2ccccc2/C1=C/[S+]([O-])Cc1cccc(Cl)c1 (stereo not shown) [Compound 6f, (Z)-3-(((3-Chlorobenzyl)sulfinyl)methylene)indolin-2-one]",> 100 µM
2,"O=C1Nc2ccccc2/C1=C/[S+]([O-])Cc1ccc(Cl)cc1 (stereo not shown) [Compound 6g, (Z)-3-(((4-Chlorobenzyl)sulfinyl)methylene)indolin-2-one]",> 100 µM
3,"O=C1Nc2ccccc2/C1=C/[S+]([O-])Cc1ccccc1Br (stereo not shown) [Compound 6h, (Z)-3-(((2-Bromobenzyl)sulfinyl)methylene)indolin-2-one]",> 100 µM
4,"O=C1Nc2ccccc2/C1=C/[S+]([O-])Cc1cccc(Br)c1 (stereo not shown) [Compound 6i, (Z)-3-(((3-Bromobenzyl)sulfinyl)methylene)indolin-2-one]",64.9 ± 1.57 µM

# Test system: not given
# Experiment: not given
# Conditions: not given
row,melting point,Compound
1,192 to 194 °C,"O=C1Nc2ccccc2/C1=C/[S+]([O-])Cc1cccc(Cl)c1 (stereo not shown) [Compound 6f, (Z)-3-(((3-Chlorobenzyl)sulfinyl)methylene)indolin-2-one]"
2,193 to 195 °C,"O=C1Nc2ccccc2/C1=C/[S+]([O-])Cc1ccc(Cl)cc1 (stereo not shown) [Compound 6g, (Z)-3-(((4-Chlorobenzyl)sulfinyl)methylene)indolin-2-one]"
3,198 to 199 °C,"O=C1Nc2ccccc2/C1=C/[S+]([O-])Cc1ccccc1Br (stereo not shown) [Compound 6h, (Z)-3-(((2-Bromobenzyl)sulfinyl)methylene)indolin-2-one]"
4,193 to 194 °C,"O=C1Nc2ccccc2/C1=C/[S+]([O-])Cc1cccc(Br)c1 (stereo not shown) [Compound 6i, (Z)-3-(((3-Bromobenzyl)sulfinyl)methylene)indolin-2-one]"
